Test results from patent publication US20030162788A1, “Combination of MTP inhibitors or apoB-secretion inhibitors with fibrates for use as pharmaceuticals” (Boehringer Ingelheim Pharma KG, priority 2002, published 2003).

Key:
[1] = test system: fa/fa rats; assay: Activities of liver enzymes (ALT, AST, GLDH) in the plasma of fa/fa rats (liver toxicity); type: in vivo, rat; settings: for ALT [U/I], MW ± SEM / AST [U/I], MW ± SEM: plasma, fenofibrate 100 mg/kg twice a day (eight times)
Description: The horizontal line in the diagram indicates three times the level in the control group and is interpreted as the threshold value for a clearly toxic side effect.).

[2] = test system: fa/fa rats; assay: Hepatic steatosis: lipid content (triglycerides, free fatty acids) in the liver of fa/fa rats; type: in vivo, rat; settings: Example B; female fa/fa rats 38 weeks old; oral; MTP inhibitor 0.3 mg/kg once a day (four times); livers removed 24 hours after last dose
Experimental: In addition, the liver may be removed in order to determine the hepatic steatosis by measuring the lipid content (triglycerides, free fatty acids, cholesterol) in this organ. To do this, 200 mg of liver are homogenised after the addition of 2 ml of isopropanol and extracted for 10 min with shaking. The extract is centrifuged for 10 min at 4° C. and 4000 rpm and one aliquot of the supernatant is used to determine the lipid parameters. The lipids in the liver are measured using commercially available test kits following the manufacturer's instructions (for triglycerides: Triglycerid-Duo S made by BIOMED Labordiagnostik GmbH, Oberschleiβheim; for cholesterol: Cholesterin-Duo S made by BIOMED Labordiagnostik GmbH, Oberschleiβheim; for free fatty acids: NEFA C made by Wako Chemicals GmbH, Neuss).
The MTP inhibitor leads to an increase in the triglycerides and the free fatty acids in the liver (FIGS. 3a and 3b). By combining it with the fibrate, the lipid accumulation caused by the MTP inhibitor is lowered by about 50% (triglycerides in the liver) or by about 80% (free fatty acids in the liver).

[3] = test system: fa/fa rats; assay: Cholesterol and triglycerides in the plasma of hyperlipaemic fa/fa rats after oral treatment; settings: for lowering of cholesterol in the plasma compared with the control group / lowering of triglycerides in the plasma compared with the control group: Example A, female fa/fa rats 33 weeks old, MTP inhibitor 1 mg/kg once a day (four times), bezafibrate 100 mg/kg twice a day (eight times), blood 24 hours after last MTP inhibitor dose or 15 hours after last fibrate dose
Experimental: The effectiveness of the combination of an MTP inhibitor with a fibrate and the effect on hepatic steatosis and liver toxicity can be tested in vivo as follows. Hyperlipaemic rats (e.g. of the rat strain fa/fa) are given the active substances as a suspension in 0.45% NaCl and 5% polyethyleneglycol 400 by oral route using an oesophageal tube (5 ml/kg of body weight). The substances may be given once or several times a day for a period of 4 days, or alternatively over a longer period. The day after the last dose, blood samples are taken by puncturing the retroorbital venous plexus and plasma is prepared. The concentrations of cholesterol and triglycerides in the plasma and the activities of the liver enzymes (e.g. ALT, AST, GLDH) are determined by well-known methods of clinical chemistry. These substrates and enzymes in the plasma may be measured for example with a HITACHI 917 Automatic Analyzer using reagents supplied by Roche Diagnostics (Mannheim) in accordance with the following procedures laid down by Roche Diagnostics:
cholesterol: BM/HITACHI 917, Boehringer Mannheim System No. 1 491 458
triglycerides: BM/HITACHI 917, Boehringer Mannheim System No. 1 730 711.
Female fa/fa rats 33 weeks old were either treated four times with an MTP inhibitor (given orally once a day at 7 a.m.) or treated eight times with a fibrate (given twice a day by oral route at 7 a.m. and 4 p.m.) A third group were given both the MTP inhibitor and the fibrate. The MTP inhibitor was 9-[4-[4-[2-(4-trifluoromethylphenyl)benzoylamino]piperidin-1-yl]butyl]-N-(2,2,2-trifluoro-ethyl)-9H-fluorene-9-carboxamide in a dosage of 1 mg/kg. The fibrate was bezafibrate in a dosage of 100 mg/kg. 24 hours after the last dose of the MTP inhibitor or 15 hours after the last dose of the fibrate blood samples were taken from the animals and the cholesterol, triglycerides and liver enzymes in the plasma were measured.
Male fa/fa rats 32 weeks old were either treated four times with an MTP inhibitor (given orally once a day between about 7 and 8 a.m.) or treated eight times with a fibrate (given twice a day by oral route between about 7 and 8 a.m. and at 4 p.m.) Another group were given both the MTP inhibitor and the fibrate. […] The fibrate was fenofibrate in a dosage of 100 mg/kg. 24 hours after the last dose of the MTP inhibitor or 15 hours after the last dose of fenofibrate, blood was taken from the animals and the levels of cholesterol, triglycerides and liver enzymes in the plasma were measured.
Male fa/fa rats 33 weeks old were either treated four times with an MTP inhibitor (given orally once a day between about 7 and 8 a.m.) or treated eight times with a fibrate (given twice a day by oral route between about 7 and 8 a.m. and at 4 p.m.) Another group were given both the MTP inhibitor and the fibrate. […] The fibrate was fenofibrate in a dosage of 100 mg/kg. 24 hours after the last dose of the MTP inhibitor or 15 hours after the last dose of fenofibrate, blood was taken from the animals and the levels of cholesterol, triglycerides and liver enzymes in the plasma were measured.

[4] = Example A, female fa/fa rats 33 weeks old, oral, MTP inhibitor 1 mg/kg once a day (four times)
[5] = Example D, male fa/fa rats 33 weeks old, compound (a) 3 mg/kg oral once a day
[6] = Example D, male fa/fa rats 33 weeks old, oral, compound (a) 3 mg/kg once a day (four times)
[7] = Example D, male fa/fa rats 33 weeks old, compound (a) 3 mg/kg once a day, fenofibrate 100 mg/kg twice a day
[8] = Example C, male fa/fa rats 32 weeks old, compound (c) 10 mg/kg oral once a day
[9] = Example C, male fa/fa rats 32 weeks old, oral, compound (c) 10 mg/kg once a day (four times)
[10] = Example C, male fa/fa rats 32 weeks old, compound (c) 10 mg/kg once a day, fenofibrate 100 mg/kg twice a day
[11] = Example D, male fa/fa rats 33 weeks old, fenofibrate 100 mg/kg twice a day

SMILES | lowering of cholesterol in the plasma compared with the control group [3] | lowering of triglycerides in the plasma compared with the control group [3] | ALT [U/I], MW ± SEM [1, 6] | AST [U/I], MW ± SEM [1, 6] | ALT [U/I], MW ± SEM [1, 9] | AST [U/I], MW ± SEM [1, 9] | reduction of cholesterol in the plasma compared with the control group [3, 10] | reduction of triglycerides in the plasma compared with the control group [3, 10] | further results
O=C(NC1CCN(CCCCC2(C(=O)NCC(F)(F)F)c3ccccc3-c3ccccc32)CC1)c1ccccc1-c1ccc(C(F)(F)F)cc1 [9-[4-[4-[2-(4-trifluoromethylphenyl)benzoylamino]piperidin-1-yl]butyl]-N-(2,2,2-trifluoro-ethyl)-9H-fluorene-9-carboxamide] | 29% | 84% |  |  |  |  |  |  | increase in the ALT activity in the blood plasma compared with the control group [1, 4]: 5.2 fold; increase in the GLDH activity in the blood plasma compared with the control group [1, 4]: 7.7 fold; free fatty acids in the liver [2]: increase; triglycerides in the liver [2]: increase
Cn1cc(NC(=O)c2ccccc2-c2ccc(C(F)(F)F)cc2)cc1C(=O)NCC#Cc1ccc(-c2ccccc2)cc1 [Compound (a), N-[3-(Biphenyl-4-yl)-prop-2-ynyl]-4-(4′-trifluoromethylbiphenyl-2-carbonylamino)-1-methyl-pyrrole-2-carboxylic acid amide] |  |  | 232.8 ± 67.8 U/I | 218.4 ± 57.1 U/I |  |  |  |  | increase in the activity of ALT in the plasma [1, 5]: 5.1 fold; increase in the activity of AST in the plasma [1, 5]: 6.7 fold; reduction of cholesterol in the plasma compared with the control group [3, 7]: 26%; reduction of triglycerides in the plasma compared with the control group [3, 7]: 76%
Cn1cc(NC(=O)c2ccccc2-c2ccc(C(F)(F)F)cc2)cc1C(=O)NCc1ccc(N2CCC3(CCCCC3)CC2)cc1 [Compound (c), N-[4-(3-Aza-spiro[5.5]undec-3-yl)-phenylmethyl]-4-(4′-trifluoromethylbiphenyl-2-carbonylamino)-1-methyl-pyrrole-2-carboxylic acid amide] |  |  |  |  | 232.9 ± 40.6 U/I | 232.7 ± 34.2 U/I | 58% | 94% | increase in the activity of ALT in the plasma [1, 8]: 3.6 fold; increase in the activity of AST in the plasma [1, 8]: 4.5 fold
CC(C)OC(=O)C(C)(C)Oc1ccc(C(=O)c2ccc(Cl)cc2)cc1 [Fenofibrate, fenofibrate] |  |  | 44.7 ± 5.3 U/I | 33.5 ± 3.7 U/I | 47.0 ± 4.9 U/I | 30.3 ± 2.7 U/I | 15% | 20% | increase of cholesterol in the plasma compared with the control group [3, 11]: 10%; increase of triglycerides in the plasma compared with the control group [3, 11]: 38%
CC(C)(Oc1ccc(CCNC(=O)c2ccc(Cl)cc2)cc1)C(=O)O [bezafibrate] | 47% | 56% |  |  |  |  |  |  | 
